“Also recorded” adds a separate entry of the source. Ends that are not written are not given here.
Experiments:
MIN6 cells = experiment: Ucn 3 secretion from MIN6 cells (Ucn 3 RIA); type: cell-based, mouse; conditions: for Ucn 3 secretion in the presence of 2.8 mM glucose / Ucn 3 release in the presence of 10 mM glucose: 2 h at 37° C.
Excerpt: FIG. 8a-e: Elevation of pancreatic Ucn 3 expression in diabetic rodent models and stimulation of Ucn 3 release from β cells by glucose. (a) Representative agarose gel electrophoresis showing Ucn 3 and S-16 (control) PCR products. (b) Summary of Ucn 3 expression in ob/ob obese mice and the wildtype (WT) littermates. *: p<0.05 vs WT. (c) Ucn 3 mRNA levels in the pancreas of high fat fed rats (HF) and chow fed controls (Ctrl). *: p<0.05 vs Ctrl. (d) Ucn 3 secretion from MIN6 cells in response to various glucose concentrations. (e) Ucn 3 release from MIN6 cells, in response to glucose and/or insulin secretagogues.
Ucn 3 secretion from P cells was studied using a mouse clonal P cell line, MIN6, as a model. For these studies MIN6 cells (Miyazaki et al., 1990) were cultured in DMEM supplemented with 10% fetal bovine serum (FBS), and 114 μm β-mercaptoethanol. To assess Ucn 3 secretion, the cells were seeded in 6-well plates and allowed to recover for 48 hrs. The cells were then washed twice with HEPES-balanced Krebs-Ringer bicarbonate buffer (HKRB) containing 5 mM glucose and 0.2% BSA and were incubated in HKRB with various testing reagents for 2 h at 37° C. The incubation buffer was collected and vacuum-dried for Ucn 3 RIA. Exendin-4 and diazoxide and carbachol were purchased from Phoenix Pharmaceuticals (Belmont, Calif.), and Sigma (St. Louis, Mo.), respectively. […] The effect of glucose on Ucn 3 secretion plateaued at 16.8 mM.

[1] = tested on: C57/B6 mice fed with high fat diet; experiment: Ucn 3 treatment of high fat diet fed mice; type: in vivo, mouse; conditions: high fat diet 16 weeks; 30 μg/kg i.p. for 6 days; vs vehicle
Procedure: FIG. 6: The in vivo effect of Ucn 3 on insulin levels and blood glucose in a mouse model of type 2 diabetes. Wild-type mice were fed a high fat diet for 16 weeks to induce hyperglycemia. The mice were then injected for six days with vehicle alone or vehicle plus 30 μg/Kg of Ucn 3. Following treatment serum glucose (left panel) and serum insulin levels (right panel were determined.
To directly assess the in vivo activity of Ucn 3 in this model system C57/B6 mice were fed with high fat diet (45% Kcal) for 16 weeks. The mice were then injected i.p. with either vehicle or mouse Ucn 3 (30 μg/kg) for 6 days. […] These studies confirm the role of Ucn 3 in mediating increased insulin response to high blood sugar.

[2] = tested on: insulin signaling in C2C12 myotubes; experiment: Phosphorylation studies of insulin signaling in C2C12 myotubes; type: cell-based; conditions: pretreatment with the PKA inhibitor
Procedure: FIG. 3a-l: Urocortin 2 effects on muscle glucose uptake are mediated by inhibition of insulin signaling. (a-f). Ucn 2 inhibits the insulin-induced Akt and ERK1/2 phosphorylation but not the insulin receptor phosphorylation. Differentiated C2C12 myotubes were pre-incubated with or without Ucn 2 peptide (0.1, 1 or 10 nM) for 1 hour prior to insulin treatment (10 nM, 5 min). Cell lystates were resolved using 4-12% gradient polyacrylamide gels. Gels were electrophorectically transferred to membranes and probed with antibodies specific for the phospho proteins pAkt (Ser 473), pERK1/2 or pIR (Tyr1146). Stimulation of Akt, ERK or insulin receptor (IR) activation was calculated by fold activation of the phosphorylated form normalized to total and compared with the untreated controls (a, d and f, graphs). […] (g-j) Ucn 2 treatment increases the phosphorylation of serine residue 307 and not the tyrosin phosphorylation of IRS-1. Myotube cells, treated with or without PKA inhibitor (H-89), were incubated with insulin and different concentrations of Ucn 2. IRS-1 immunoprecipitated proteins were electrophoresed as before and the immunoblots were probed for phosphorylated tyrosin (g), phosphorylated serine 307 IRS-1 (i) and total IRS-1 (g, i). […] (k) The effect of Ucn 2 on [^3H]2-deoxy-D-glucose uptake in differentiated C2C12 myotubes. Cells were incubated for 2 hours in low glucose, serum free medium and treated with Ucn 2 (0.1, 1 or 10 nM) or without (control) for 30 min prior to insulin administration (10 nM). Glucose uptake was measured 5 min following exposure to [^3H]2-deoxy-D-glucose. Non-specific uptake was measured by incubating muscle tissue with cytochalasin B, which binds to the glucose uptake transporter (GLUT) and inhibits glucose transport into the cell. Specific uptake was calculated by subtracting non specific from total glucose. (l) Schematic representation of the putative cellular mechanisms mediating the effect of Ucn 2 and CRFR2 on the insulin signaling and glucose uptake in skeletal muscle cells. * indicates p<0.05 vs. no treatment. # indicates p<0.05 vs. insulin treatment (b, d, f) or p<0.05 vs. insulin treatment and Ucn 2 (i).
Differentiated C2C12 myotubes were pre-incubated with or without Ucn 2 peptide (0.1, 1 or 10 nM) for 1 hour prior to insulin treatment (10 nM, 5 min). Cells were harvested immediately in 100 μl of sample treatment buffer [STB, 50 mM Tris (pH 6.8), 100 mM dithiothreitol, 2% (wt/vol) sodium dodecyl sulfate, 0.1% (wt/vol) bromphenol blue, and 10% (wt/vol) glycerol]. The samples were boiled for 5 min, proteins were electrophoresed on 4-12% sodium dodecyl sulfate-polyacrylamide gradient gel (Invitrogen Life Technologies), subsequently transferred onto nitrocellulose membranes, and probed with antibodies specific for phosphorylated Akt (Ser 473, Cell Signaling Technology, Inc., Beverly, Mass.), phosphorylated ERK1/2-p42, 44 (Santa Cruz Biotechnology, Inc., Santa Cruz, Calif.), phosphorylated insulin receptor (Tyr 1146, Cell Signaling Technology, Inc.), or phosphorylated IRS1 (Ser 307, Upstate Cell Signaling Solutions, Lake placid, NY). The membranes were washed with phosphate buffer saline containing 0.05% (vol/vol) Tween 20 and incubated with horseradish peroxidase-conjugated anti mouse or rabbit IgG raised in sheep (Amersham Biotech Pharmacia). Immunoreactive proteins were visualized using Super Signal West Pico Chemiluminescent substrate (Pierce, Rockford, Ill.). The relative protein levels were determined using densitometry (Image quant 1.2) by probing the membranes with antibodies directed against total proteins.

isolated rat islets = experiment: Insulin secretion from isolated rat islets; type: cell-based; conditions: 10 nM in the presence of 8.4 mM glucose
Procedure: FIG. 4a-b: The effect of CRFR2 antagonist on insulin secretion in isolated rat islets. (a) The effect of astressin2B (Ast2-B) on insulin secretion in response to glucose in isolated rat islets. […] The asterisk indicates a statistically significant difference between results from the control versus Ast2-B. (b) Isolated rat isles were pre-treated with anti-Ucn 3 IgG or control IgG followed by addition of indicated concentration of glucose. Y-axis indicates insulin secretion from the treated islets. The double asterisks indicate a statistically significant difference between the indicated treatments. […]
To assess the effect of CRFR2 antagonism on islet cell function secretion of insulin from isolated rat islets was studied. […] Thus, activation of CRFR2 by endogenous ligands is involved in insulin secretion induced by high levels of glucose.
In order to determine the role of Ucn 3 in glucose induced insulin secretion, isolated rat islets were pretreated with an anti-Ucn 3 IgG prior to glucose treatment.

CC1=NS(=O)(=O)c2cc(Cl)ccc2N1 [diazoxide]
glucose-induced Ucn 3 secretion (MIN6 cells; pretreatment, 100 μM): effectively blocked

Ucn 3: Urocortin 3, CRF family member acting as CRFR2 agonist; mouse Ucn 3 (SEQ ID NO:3) (FTLSLDVPTNIMNILFNIDKAKNLRAKAAANAQLMAQI; ends and bridges not checked; listed as Mus musculus)
glucose levels [1]: significantly lower glucose levels | insulin levels [1]: higher insulin levels compared to the control, though the difference was not statistically significant

O=S(=O)(NCCNC/C=C/c1ccc(Br)cc1)c1cccc2cnccc12 [H-89]
phosphorylation of IRS-1 on S307 by Ucn 2 [2]: completely blocked

C[N+](C)(C)CCOC(N)=O [carbachol]
Ucn 3 secretion in the presence of 2.8 mM glucose (MIN6 cells): minimal or moderate | Ucn 3 release in the presence of 10 mM glucose (MIN6 cells): significantly stimulated

Exendin-4: a long acting GLP-1 analogue
insulin release from isolated islets (isolated rat islets): significantly stimulated; also recorded: stimulated insulin release | Ucn 3 secretion in the presence of 2.8 mM glucose (MIN6 cells): minimal or moderate | Ucn 3 release in the presence of 10 mM glucose (MIN6 cells): significantly stimulated

Reference: US7815905B2, “Methods of increasing insulin sensitivity or decreasing insulin secretion by administering corticotropin releasing factor receptor-2 inhibitors” (Research Development Foundation, priority 2006, dated 2010)
